Results as given in ChEMBL document CHEMBL1130651, “Synthesis of novel C7-aryl substituted pyrrolo[2,1-c][1,4]benzodiazepines (PBDs) via pro-N10-Troc protection and Suzuki coupling” (Bioorg Med Chem Lett, 1998).

How the values were obtained:
CH1 = test: Compound was evaluated for cytotoxicity against CH1 cell line; type: functional, cell-based; details: Homo sapiens
A2780 = test: Compound was evaluated for cytotoxicity against A2780 cell line; type: functional, cell-based; details: Homo sapiens

O=C1c2cc(-c3ccc(F)cc3)ccc2N=C[C@@H]2CCCN12 was tested, and the IC50 (CH1) was 4.7 µM and the IC50 (A2780) was 660 nM.

For O=C1c2cc(-c3cccc([N+](=O)[O-])c3)ccc2N=C[C@@H]2CCCN12, the IC50 (CH1) was 22.5 µM and the IC50 (A2780) was 34500 nM.

Cc1ccc(-c2ccc3c(c2)C(=O)N2CCC[C@H]2C=N3)cc1 gave an IC50 (CH1) of 1.5 µM and an IC50 (A2780) of 580 nM.

In the case of O=C1c2cc(-c3ccccc3)ccc2N=C[C@@H]2CCCN12, the IC50 (CH1) is reported as 1.5 µM and the IC50 (A2780) is reported as 1150 nM.

For COc1ccccc1-c1ccc2c(c1)C(=O)N1CCC[C@H]1C=N2, the IC50 (CH1) was 4.8 µM and the IC50 (A2780) was 1180 nM.

In the case of COc1ccc(-c2ccc3c(c2)C(=O)N2CCC[C@H]2C=N3)cc1, the IC50 (CH1) is reported as 1.35 µM and the IC50 (A2780) is reported as 560 nM.
